Assay results from patent US11021444B2, “Antiviral compounds” (priority 2013, dated 2021).
Where two headings read alike, the source gives them in different places.

How the values were obtained:
recombinant RSV complex = recombinant RSV complex (Human respiratory syncytial virus A, UniProt P28887); assay: RSV Polymerase Inhibition Assay; assay type: biochemical
Summary of the method: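 10 nM recombinant RSV polymerase complex in Tris-HCl pH 7.5, 6 mM MgCl2 with RNA oligonucleotide template and radionucleotides, incubated 2 h at 30 °C with increasing inhibitor concentrations. Reaction stopped with EDTA; radiolabeled RNA product counted by scintillation.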

HEp-2 cells = assay: Cytotoxicity Determination (CCK-8, without addition of virus); assay type: cell-based
Summary of the method: (§1)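 HEp-2 cells were seeded at 1,500 cells/well one day before compound addition. Compounds were tested without virus in duplicate over 7 points from 100 μM in 1/2 steps, with 1% final DMSO, 5 days at 37 °C, 5% CO2. Viability was read by CCK-8 after 3-4 hours.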

RSV replicon = assay: microbe, parasite or virus in culture; assay type: cell-based; details: human respiratory syncytial virus, read-out: EC50, the concentration of the drug required for reducing RSV replicon RNA by 50%
[1] = tested on: Respiratory Syncytial Virus (RSV) long strain; assay: microbe, parasite or virus in culture; assay type: cell-based; details: human respiratory syncytial virus, HEp-2, 120 h, read-out: 50% effective concentration (EC50), HEp-2 cells infected with RSV long strain, 5 days, CCK-8 readout; Tables A and B list compounds by EC50 band
Summary of the method: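 HEp-2 cells infected with 100 TCID50 virus per well, compounds in duplicate, 9-point 1/3 dilutions from 100 μM or 1 μM, 1% DMSO. After 5 days at 37 °C, cell viability (CPE protection) read by CCK-8 absorbance at 450 nm, 630 nm background.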

[2] = Cytotoxicity Determination (CCK-8, without addition of virus); assay type: cell-based; details: human, 50% cytotoxicity concentration (CC50)
Summary of the method: as §1

recombinant RSV complex, sequence (P28887 whole entry): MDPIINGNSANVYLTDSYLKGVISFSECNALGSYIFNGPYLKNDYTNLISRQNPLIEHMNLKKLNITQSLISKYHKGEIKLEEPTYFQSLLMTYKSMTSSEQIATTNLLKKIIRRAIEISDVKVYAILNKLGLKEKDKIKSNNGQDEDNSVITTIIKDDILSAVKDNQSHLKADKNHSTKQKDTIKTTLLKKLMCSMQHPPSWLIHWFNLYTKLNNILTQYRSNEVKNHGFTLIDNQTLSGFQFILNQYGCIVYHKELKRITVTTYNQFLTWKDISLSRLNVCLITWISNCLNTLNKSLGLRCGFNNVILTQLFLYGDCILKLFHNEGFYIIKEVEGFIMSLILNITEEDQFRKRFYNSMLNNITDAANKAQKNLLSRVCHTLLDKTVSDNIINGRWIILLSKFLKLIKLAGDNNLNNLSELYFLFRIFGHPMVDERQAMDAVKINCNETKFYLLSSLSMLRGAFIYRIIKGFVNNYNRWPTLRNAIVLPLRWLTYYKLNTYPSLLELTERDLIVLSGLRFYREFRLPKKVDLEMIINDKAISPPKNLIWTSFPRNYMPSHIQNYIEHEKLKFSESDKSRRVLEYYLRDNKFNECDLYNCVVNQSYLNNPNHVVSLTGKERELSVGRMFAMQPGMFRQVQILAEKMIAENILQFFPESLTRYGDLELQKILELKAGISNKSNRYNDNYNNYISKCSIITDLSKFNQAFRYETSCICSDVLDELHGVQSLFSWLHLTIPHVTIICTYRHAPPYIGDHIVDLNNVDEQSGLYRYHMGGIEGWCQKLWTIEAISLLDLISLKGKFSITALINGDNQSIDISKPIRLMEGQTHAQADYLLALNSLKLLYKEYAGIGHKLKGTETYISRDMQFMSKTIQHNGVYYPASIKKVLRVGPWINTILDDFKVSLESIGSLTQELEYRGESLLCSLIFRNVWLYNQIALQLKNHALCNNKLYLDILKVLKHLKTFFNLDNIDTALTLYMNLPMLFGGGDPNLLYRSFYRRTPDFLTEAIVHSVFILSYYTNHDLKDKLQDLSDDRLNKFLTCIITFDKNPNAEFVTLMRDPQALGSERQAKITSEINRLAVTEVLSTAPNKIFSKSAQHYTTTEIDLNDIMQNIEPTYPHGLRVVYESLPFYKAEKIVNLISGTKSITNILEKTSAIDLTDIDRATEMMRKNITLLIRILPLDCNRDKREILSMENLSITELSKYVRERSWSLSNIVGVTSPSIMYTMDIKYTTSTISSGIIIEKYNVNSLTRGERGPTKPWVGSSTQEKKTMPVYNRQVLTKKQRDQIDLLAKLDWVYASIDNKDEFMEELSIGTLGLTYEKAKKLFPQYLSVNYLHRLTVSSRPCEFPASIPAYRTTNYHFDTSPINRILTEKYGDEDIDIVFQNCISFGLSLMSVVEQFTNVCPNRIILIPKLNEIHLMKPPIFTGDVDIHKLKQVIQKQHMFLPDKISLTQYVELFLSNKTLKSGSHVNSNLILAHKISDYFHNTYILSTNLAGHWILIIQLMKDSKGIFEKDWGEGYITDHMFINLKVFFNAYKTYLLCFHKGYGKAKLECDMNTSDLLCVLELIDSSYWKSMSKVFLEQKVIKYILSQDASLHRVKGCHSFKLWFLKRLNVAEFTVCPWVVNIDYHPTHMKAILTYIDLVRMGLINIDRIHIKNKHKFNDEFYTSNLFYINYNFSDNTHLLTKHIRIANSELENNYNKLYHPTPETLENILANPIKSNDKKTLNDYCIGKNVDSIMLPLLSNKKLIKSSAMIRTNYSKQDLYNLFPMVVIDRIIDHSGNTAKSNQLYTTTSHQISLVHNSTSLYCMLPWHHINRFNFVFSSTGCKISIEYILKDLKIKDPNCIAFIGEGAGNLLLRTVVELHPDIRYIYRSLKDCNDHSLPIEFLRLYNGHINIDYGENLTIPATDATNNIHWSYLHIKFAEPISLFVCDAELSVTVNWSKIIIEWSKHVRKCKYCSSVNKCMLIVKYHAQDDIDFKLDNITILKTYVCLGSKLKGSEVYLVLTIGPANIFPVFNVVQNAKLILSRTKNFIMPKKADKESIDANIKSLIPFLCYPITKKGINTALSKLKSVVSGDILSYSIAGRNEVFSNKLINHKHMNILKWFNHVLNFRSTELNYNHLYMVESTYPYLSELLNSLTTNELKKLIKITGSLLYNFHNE
recombinant RSV complex, sequence (P03421 whole entry, further chain): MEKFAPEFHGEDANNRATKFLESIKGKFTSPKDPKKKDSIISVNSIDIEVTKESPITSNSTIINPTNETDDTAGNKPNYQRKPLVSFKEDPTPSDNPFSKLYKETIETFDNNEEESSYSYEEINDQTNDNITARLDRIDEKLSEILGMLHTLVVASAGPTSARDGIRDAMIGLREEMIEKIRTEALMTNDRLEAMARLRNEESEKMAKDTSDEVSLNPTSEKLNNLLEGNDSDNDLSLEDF

Structure (SMILES): CCC(O)(CNC(=O)c1ccc(OCCF)c(OC)c1)c1ccc(OC)c(-c2ccc(F)c(Cl)c2)n1 (single isomer, unassigned) [Compound 122b]
- IC50 (recombinant RSV complex): < 10 µM
- CC50 (HEp-2 cells; human, 5 days): 10 to 100 µM

Structure (SMILES): COc1cc(C(=O)NCC(O)(c2ccc(OC)c(-c3ccc(F)c(Cl)c3)n2)C(F)(F)F)ccc1OCC(N)=O (single isomer, unassigned) [Compound 239]
- CC50 (HEp-2 cells; human, 5 days): 10 to 100 µM
- EC50 (RSV replicon): < 1 µM

Structure (SMILES): COc1cc(C(=O)NCC(O)(c2cc(C(C)(N)CF)cc(-c3ccc(F)cc3)n2)C(F)(F)F)ccc1OCC(N)=O (single isomer, unassigned) [Compound 655]
- IC50 (recombinant RSV complex): < 1 µM
- CC50 (HEp-2 cells; human, 5 days): > 100 µM

Structure (SMILES): COc1cc(C(=O)NCC(O)(c2cc(C(C)(N)CF)cc(-c3ccc(F)cc3)n2)C(F)(F)F)ccc1OCC(N)=O (single isomer, unassigned) [Compound 656]
- CC50 (HEp-2 cells; human, 5 days): 10 to 100 µM
- EC50 [1]: < 1 µM

Structure (SMILES): COc1cc(C(=O)NCC(O)(c2ccc(OC)c(-c3ccc(F)c(Cl)c3)n2)C2CC2)ccc1OCCO (stereo not drawn) [Compound 243]
- CC50 (HEp-2 cells; human, 5 days): 10 to 100 µM

Structure (SMILES): COc1ccc(C(O)(CNC(=O)c2ccc(O[C@H]3CCNC3=O)c(Cl)c2)C(F)(F)F)cc1-c1ccc(F)c(Cl)c1 (stereo partly drawn) [Compound 260]
- CC50 (HEp-2 cells): 10 to 100 µM

Structure (SMILES): COc1cc(C(=O)NCC(O)(c2ccc(OC)c(-c3ccc(F)c(Cl)c3)n2)C(F)F)ccc1OCC(N)=O (stereo not drawn) [Compound 442]
- IC50 (recombinant RSV complex): < 1 µM
- CC50 (HEp-2 cells; human, 5 days): 10 to 100 µM
- EC50 (RSV replicon): < 1 µM
- EC50 [1]: < 1 µM

Structure (SMILES): COc1cc(C(=O)NCC(O)(c2ccc(OC)c(-c3ccc(F)c(Cl)c3)n2)C(F)F)ccc1OCC(N)=O (stereo not drawn) [Compound 447]
- CC50 (HEp-2 cells; human, 5 days): > 100 µM

Structure (SMILES): COc1cc(C(=O)NC[C@@](O)(c2cc3c(c(-c4ccc(F)cc4)n2)OCC3(N)CO)C(F)(F)F)ccc1OC1CC1 (stereo partly drawn) [Compound 653]
- IC50 (recombinant RSV complex): < 1 µM
- CC50 at 5 days [2]: > 100 µM
- EC50 (RSV replicon): < 1 µM
- EC50 [1]: < 1 µM

Structure (SMILES): COc1cc(C(=O)NCC(O)(c2cc3c(c(-c4ccc(F)c(F)c4)n2)OCC3(C)N)C(F)(F)F)ccc1OCCO (stereo not drawn) [Compound 663]
- IC50 (recombinant RSV complex): < 1 µM
- CC50 at 5 days [2]: 10 to 100 µM
- EC50 (RSV replicon): < 1 µM
- EC50 [1]: < 1 µM

Structure (SMILES): COc1cc(C(=O)NCC(O)(c2cc3c(c(-c4ccc(F)c(C(F)(F)F)c4)n2)OCC3(C)N)C(F)(F)F)ccc1CO[C@@H](C)O (stereo partly drawn) [Compound 665]
- IC50 (recombinant RSV complex): < 1 µM
- CC50 at 5 days [2]: 10 to 100 µM
- EC50 (RSV replicon): < 1 µM
- EC50 [1]: < 1 µM
